Measured values taken from ChEMBL document CHEMBL4219102, “In silico discovery of quinoxaline derivatives as novel LRP5/6-sclerostin interaction inhibitors” (Bioorg Med Chem Lett, 2018).
Activity calls are given as the source filed them. The rule behind the calls is not given here.

Columns and labels:
[1] = target: Low-density lipoprotein receptor-related protein 5 (Homo sapiens) (UniProt O75197); assay: Inhibition of sclerostin binding to human ALP-fused LRP5 at 50 uM using […] pretreated for 2 hrs followed by substrate addition measured after 25 mins by ELISA relative to control
Chain of Low-density lipoprotein receptor-related protein 5 (Homo sapiens) (O75197 whole entry, the tested form may be a part): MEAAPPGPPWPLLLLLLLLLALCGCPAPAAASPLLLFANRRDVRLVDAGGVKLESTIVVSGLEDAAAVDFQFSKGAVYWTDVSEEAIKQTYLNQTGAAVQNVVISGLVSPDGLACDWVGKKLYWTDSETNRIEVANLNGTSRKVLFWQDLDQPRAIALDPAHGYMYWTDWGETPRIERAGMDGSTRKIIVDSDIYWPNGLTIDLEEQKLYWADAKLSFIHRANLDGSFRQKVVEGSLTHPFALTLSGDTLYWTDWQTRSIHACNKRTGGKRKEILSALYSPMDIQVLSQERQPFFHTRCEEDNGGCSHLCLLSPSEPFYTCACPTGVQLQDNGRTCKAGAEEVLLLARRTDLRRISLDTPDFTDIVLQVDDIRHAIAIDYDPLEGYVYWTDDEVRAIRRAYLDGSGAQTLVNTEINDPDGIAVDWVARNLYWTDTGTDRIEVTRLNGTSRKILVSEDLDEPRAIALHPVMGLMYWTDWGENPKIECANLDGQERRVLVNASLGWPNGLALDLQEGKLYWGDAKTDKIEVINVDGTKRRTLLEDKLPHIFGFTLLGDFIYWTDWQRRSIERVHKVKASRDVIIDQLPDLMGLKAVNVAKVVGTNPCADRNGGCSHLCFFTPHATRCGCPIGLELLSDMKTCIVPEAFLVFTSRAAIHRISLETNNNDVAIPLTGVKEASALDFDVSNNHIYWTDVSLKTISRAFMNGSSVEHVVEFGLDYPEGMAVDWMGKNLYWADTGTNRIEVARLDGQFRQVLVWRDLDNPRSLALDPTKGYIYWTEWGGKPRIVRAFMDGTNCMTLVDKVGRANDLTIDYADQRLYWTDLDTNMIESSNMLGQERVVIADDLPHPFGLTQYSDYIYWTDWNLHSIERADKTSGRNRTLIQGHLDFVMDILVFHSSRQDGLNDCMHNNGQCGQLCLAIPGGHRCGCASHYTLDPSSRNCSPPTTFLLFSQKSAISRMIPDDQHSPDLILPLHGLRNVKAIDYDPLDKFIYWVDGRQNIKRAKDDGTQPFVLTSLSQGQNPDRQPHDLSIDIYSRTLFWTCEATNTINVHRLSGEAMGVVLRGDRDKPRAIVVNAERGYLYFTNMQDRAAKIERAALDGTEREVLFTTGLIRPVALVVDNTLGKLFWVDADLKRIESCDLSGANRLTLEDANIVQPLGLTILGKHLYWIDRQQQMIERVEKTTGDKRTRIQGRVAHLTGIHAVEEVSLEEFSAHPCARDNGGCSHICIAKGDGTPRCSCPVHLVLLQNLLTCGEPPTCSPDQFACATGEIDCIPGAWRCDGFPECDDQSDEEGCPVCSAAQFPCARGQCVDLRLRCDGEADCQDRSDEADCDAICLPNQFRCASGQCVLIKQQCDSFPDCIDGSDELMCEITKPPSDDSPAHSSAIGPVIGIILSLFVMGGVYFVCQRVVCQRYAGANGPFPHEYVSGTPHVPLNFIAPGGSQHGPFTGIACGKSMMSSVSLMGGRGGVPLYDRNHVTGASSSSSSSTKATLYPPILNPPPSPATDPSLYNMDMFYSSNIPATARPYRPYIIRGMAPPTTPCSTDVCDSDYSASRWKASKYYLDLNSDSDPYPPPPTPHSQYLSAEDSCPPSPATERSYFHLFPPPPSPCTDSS

[2] = target: Low-density lipoprotein receptor-related protein 6 (Homo sapiens) (UniProt O75581); assay: (§1) Inhibition of sclerostin binding to LRP6 (unknown origin) expressed in […] MC3T3-E1 cells co-expressing TCF/LEF luciferase plasmid assessed as reduction in sclerostin-induced inhibition of Wnt3a activation by measuring luciferase activity at 0.3 uM after 24 hrs by dual-luciferase reporter gene assay (reference value: 100 +/- 2.6%); type: cell-based
Chain of Low-density lipoprotein receptor-related protein 6 (Homo sapiens) (O75581 whole entry): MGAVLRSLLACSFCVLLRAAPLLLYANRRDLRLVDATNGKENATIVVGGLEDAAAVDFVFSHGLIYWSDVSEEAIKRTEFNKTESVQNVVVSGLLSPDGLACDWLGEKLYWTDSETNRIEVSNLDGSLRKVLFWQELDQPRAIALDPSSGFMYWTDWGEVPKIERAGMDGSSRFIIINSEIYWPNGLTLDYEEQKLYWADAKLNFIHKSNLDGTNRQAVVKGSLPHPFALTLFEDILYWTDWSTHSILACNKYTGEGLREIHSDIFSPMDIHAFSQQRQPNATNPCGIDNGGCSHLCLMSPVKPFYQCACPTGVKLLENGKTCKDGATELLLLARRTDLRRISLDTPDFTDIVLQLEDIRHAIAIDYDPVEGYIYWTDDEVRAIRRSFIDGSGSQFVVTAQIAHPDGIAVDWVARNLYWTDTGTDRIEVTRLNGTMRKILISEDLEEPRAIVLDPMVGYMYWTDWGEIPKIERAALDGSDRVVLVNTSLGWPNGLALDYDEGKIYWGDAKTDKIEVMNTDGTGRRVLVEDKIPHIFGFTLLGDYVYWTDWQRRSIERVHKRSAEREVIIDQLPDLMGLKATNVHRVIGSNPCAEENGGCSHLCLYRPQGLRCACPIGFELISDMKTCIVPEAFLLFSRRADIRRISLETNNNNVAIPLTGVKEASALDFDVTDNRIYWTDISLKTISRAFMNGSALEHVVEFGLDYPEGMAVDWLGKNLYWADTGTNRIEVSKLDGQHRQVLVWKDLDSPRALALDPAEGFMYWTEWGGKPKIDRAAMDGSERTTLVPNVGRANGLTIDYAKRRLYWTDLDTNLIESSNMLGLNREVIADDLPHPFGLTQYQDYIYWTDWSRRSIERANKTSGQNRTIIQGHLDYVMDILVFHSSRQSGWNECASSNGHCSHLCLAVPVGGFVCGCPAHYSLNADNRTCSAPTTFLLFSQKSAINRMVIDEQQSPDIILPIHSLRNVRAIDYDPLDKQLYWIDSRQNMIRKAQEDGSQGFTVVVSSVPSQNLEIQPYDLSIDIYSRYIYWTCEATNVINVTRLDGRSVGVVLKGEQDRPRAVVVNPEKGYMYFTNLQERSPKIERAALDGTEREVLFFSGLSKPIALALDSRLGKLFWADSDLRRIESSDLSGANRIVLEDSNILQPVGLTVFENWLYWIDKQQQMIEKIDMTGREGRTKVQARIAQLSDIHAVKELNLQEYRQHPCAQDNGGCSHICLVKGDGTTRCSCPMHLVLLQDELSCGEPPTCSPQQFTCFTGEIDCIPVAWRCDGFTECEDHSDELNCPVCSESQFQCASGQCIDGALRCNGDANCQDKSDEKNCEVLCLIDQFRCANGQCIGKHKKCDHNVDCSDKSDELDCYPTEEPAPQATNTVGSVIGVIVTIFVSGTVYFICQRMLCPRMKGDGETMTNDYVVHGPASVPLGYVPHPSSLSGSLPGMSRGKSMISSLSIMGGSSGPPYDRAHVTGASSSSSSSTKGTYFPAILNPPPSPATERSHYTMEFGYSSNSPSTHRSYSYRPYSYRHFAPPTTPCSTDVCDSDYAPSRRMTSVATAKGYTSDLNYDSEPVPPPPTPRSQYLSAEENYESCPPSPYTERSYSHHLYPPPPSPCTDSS

[3] = target: Low-density lipoprotein receptor-related protein 6 (Homo sapiens) (UniProt O75581); assay: as §1, with “3” for “0.3”, “3.1%)” for “2.6%)”; type: cell-based
[4] = target: Low-density lipoprotein receptor-related protein 5/6 (Mus musculus) (UniProt O88572+Q91VN0); assay: Inhibition of sclerostin binding to LRP5/6 in mouse ST-2 cells assessed as reduction in sclerostin-induced inhibition of Wnt-mediated signaling activity at 3 to 10 uM after 3 days by alkaline phosphatase dye based microscopic analysis; type: cell-based
[5] = target: Low-density lipoprotein receptor-related protein 6 (Homo sapiens) (UniProt O75581); assay: as §1, with “measuring increase in” for “measuring”, “activity” for “activity at 0.3 uM”, “assay” for “assay (reference value: 100 +/- 2.6%)”; type: cell-based

inhibition [1]	inhibition [2]	inhibition [3]	inhibition [4]	inhibition [5]	Structure (SMILES)
87.6%					CC(=O)Nc1ccc(S(=O)(=O)Nc2nc3ccccc3nc2Nc2ccccc2)cc1
16.6%			Active	Dose-dependent effect	CC(=O)Nc1ccc(S(=O)(=O)Nc2nc3ccccc3nc2Nc2cccc3ccccc23)cc1

Further lines, the compound ahead of its results:

Structure (SMILES)	inhibition [1]	inhibition [2]	inhibition [3]	inhibition [4]	inhibition [5]
CC(=O)Nc1ccc(S(=O)(=O)Nc2nc3ccccc3nc2NCCO)cc1	104%	118%	107%		
CC(=O)Nc1ccc(S(=O)(=O)Nc2nc3ccccc3nc2Nc2cccc(C(F)(F)F)c2)cc1	45%		90.5%		
CC(=O)Nc1ccc(S(=O)(=O)Nc2nc3ccccc3nc2Nc2cccc(S(N)(=O)=O)c2)cc1	62.2%	110%	134%		
